The source of these data is US20180273528A1 (LES LABORATOIRES SERVIER, priority 2015, published 2018).

For test [1], the target named is T1, His-TEV-DYRK1A Kinase domain (aa127-485) (Homo sapiens, UniProt Q13627).
T1 construct: His-TEV-DYRK1A Kinase domain (aa127-485); His tag (N); TEV protease cleavage site (N)
Put plainly: Kinase ADP assay (ADP Hunter), DYRK1A kinase domain. It counts as biochemical. The settings on record: 20 μM ATP. A digest of the protocol:
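Compounds incubated 10 min at 30 °C with 20 nM enzyme, 40 μM peptide substrate and 20 μM ATP in pH 7.4 Hepes buffer with 10 mM MgCl2. ADP formed detected by ADP Hunter Plus reagents after 20 min at 30 °C, fluorescence read at 590 nm.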

For a further test, the target named is T2, DYRK1B (Homo sapiens, UniProt Q9Y463).
T2 construct: full-length human kinases from Carna Biosciences; purchased Carna Biosciences 04-131
Put plainly: Kinase TR-FRET assay, DYRK1B. The settings on record: full-length human kinase, 10 μM ATP. The format is biochemical. On the procedure: Inhibition of the enzymatic activity of human kinases was evaluated in a Time-Resolved Fluorescence Resonance Energy Transfer (TR-FRET) assay in 384-well reaction plates. […] Test compounds of the invention were added in reaction buffer at a range of concentrations from 0.1 nM to 30 μM. Following addition of EDTA (Sigma E7889, 10 mM) to stop the reaction, Europium-labelled mouse monoclonal antibody recognizing phospho-Thr232 in MBP (Perkin Elmer TRF0201, 1 nM) was added.
Background: In TR-FRET formats the signal depends on donor and acceptor labels being close together.

The target of a further test is T3, CDK9 (Homo sapiens, UniProt P50750).
T3 construct: full-length human kinases from Carna Biosciences; purchased Carna Biosciences 04-110
Put plainly: Kinase TR-FRET assay, CDK9. It counts as biochemical. The settings on record: full-length human kinase, 10 μM ATP. How it is done:
Inhibition of the enzymatic activity of human kinases was evaluated in a Time-Resolved Fluorescence Resonance Energy Transfer (TR-FRET) assay in 384-well reaction plates. In this assay, full-length human kinases from Carna Biosciences—DYRK1A (NM_001396, ref. 04-130; 2.0 ng/μl), DYRK1B (NM_004714, ref. 04-131; 1.2 ng/p), CLK1 (NM_001162407, ref. 04-126; 0.7 ng/μl), CDK9 (NM_001261, ref. 04-110; 0.9 ng/μl), or GSK3β (NM_001146156, ref. 04-141; 2.0 ng/μl—were incubated for 40 minutes (DYRK1A and DYRK1B) or 100 minutes (CLK1, CDK9 and GSK3β) at room temperature with ATP (Sigma A2383, 10 μM) and a ULight™-labelled human Myelin Basic Protein (MBP) peptide substrate (Perkin Elmer TRF0109, 100 nM) in a reaction buffer composed of 50 mM HEPES pH7.4, 1 mM EGTA, 10 mM MgCl2, 2 mM DTT and 0.01% Tween20. Test compounds of the invention were added in reaction buffer at a range of concentrations from 0.1 nM to 30 μM. Following addition of EDTA (Sigma E7889, 10 mM) to stop the reaction, Europium-labelled mouse monoclonal antibody recognizing phospho-Thr232 in MBP (Perkin Elmer TRF0201, 1 nM) was added. After one hour, the reaction plates were read using a fluorescence reader (EnVision®, Perkin Elmer) at 620 nm and 665 nm (excitation at 340 nm); when the Europium donor fluorophore is excited by light at 340 nm, an energy transfer (620 nm) to the acceptor occurs, which will then emit light at 665 nm.

Test [2] addresses T4, DYRK1A (Homo sapiens, UniProt Q13627). Put plainly: Kinase TR-FRET assay, DYRK1A. Also on record: full-length, wild-type human DYRK1A (NM_001396) with an HA tag; expressed in transfected cells; host or cells: human U2-OS osteosarcoma cells, transient transfection of a pcDNA3.1 plasmid. The format is biochemical. The settings on record: full-length human kinase, 10 μM ATP. The method in brief:
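Compounds tested at 0.1 nM to 30 μM in reaction buffer; reaction stopped with 10 mM EDTA. Phosphorylated MBP detected with 1 nM Europium-labelled anti-phospho-Thr232 antibody by TR-FRET.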

For test [3], the target named is T4, DYRK1A. Briefly: Cellular DYRK1 autophosphorylation assay in U2-OS cells. It counts as cell-based. Also on record: full-length, wild-type human DYRK1A (NM_001396) with an HA tag; expressed in transfected cells; host or cells: human U2-OS osteosarcoma cells, transient transfection of a pcDNA3.1 plasmid. To be noted: U2-OS cells transfected with HA-tagged human DYRK1A, 5 hours exposure; read-out: IC50 (μM) P-Ser520-Dyrk1A -Cell assay. A digest of the protocol:
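U2-OS cells treated with a compound concentration range for 5 h. Phospho-Ser520-DYRK1A measured by western blot densitometry or Mesoscale ELISA. IC50 from dose-response curves; for blots, ratio of phospho-Ser520 to total DYRK1A signal.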

T2 sequence (Q9Y463 whole entry): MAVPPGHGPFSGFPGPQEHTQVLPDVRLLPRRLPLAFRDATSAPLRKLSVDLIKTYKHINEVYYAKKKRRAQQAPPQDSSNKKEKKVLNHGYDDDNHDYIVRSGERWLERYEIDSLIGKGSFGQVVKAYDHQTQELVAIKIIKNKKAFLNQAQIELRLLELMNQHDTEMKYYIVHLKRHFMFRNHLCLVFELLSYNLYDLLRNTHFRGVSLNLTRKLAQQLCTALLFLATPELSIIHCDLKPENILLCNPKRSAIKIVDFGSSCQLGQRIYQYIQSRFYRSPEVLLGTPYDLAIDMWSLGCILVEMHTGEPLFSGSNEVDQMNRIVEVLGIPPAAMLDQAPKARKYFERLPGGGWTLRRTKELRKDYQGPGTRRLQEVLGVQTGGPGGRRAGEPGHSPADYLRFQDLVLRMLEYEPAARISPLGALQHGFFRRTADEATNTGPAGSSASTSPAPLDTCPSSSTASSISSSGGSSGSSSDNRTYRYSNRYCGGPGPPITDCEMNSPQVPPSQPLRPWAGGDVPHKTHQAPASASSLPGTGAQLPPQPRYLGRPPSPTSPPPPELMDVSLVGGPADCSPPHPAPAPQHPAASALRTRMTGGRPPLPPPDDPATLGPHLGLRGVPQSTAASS
T3 sequence (P50750 whole entry): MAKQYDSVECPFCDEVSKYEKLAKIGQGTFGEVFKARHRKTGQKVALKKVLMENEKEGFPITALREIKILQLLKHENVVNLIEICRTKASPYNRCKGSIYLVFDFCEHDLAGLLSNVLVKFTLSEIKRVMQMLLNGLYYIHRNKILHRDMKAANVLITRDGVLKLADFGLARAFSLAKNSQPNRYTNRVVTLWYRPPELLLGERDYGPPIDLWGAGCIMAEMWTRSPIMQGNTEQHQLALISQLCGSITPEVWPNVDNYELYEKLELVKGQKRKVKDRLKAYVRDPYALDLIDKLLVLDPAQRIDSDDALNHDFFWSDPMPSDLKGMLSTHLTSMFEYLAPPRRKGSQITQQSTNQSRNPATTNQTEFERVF
T3 sequence (O60563 whole entry partner): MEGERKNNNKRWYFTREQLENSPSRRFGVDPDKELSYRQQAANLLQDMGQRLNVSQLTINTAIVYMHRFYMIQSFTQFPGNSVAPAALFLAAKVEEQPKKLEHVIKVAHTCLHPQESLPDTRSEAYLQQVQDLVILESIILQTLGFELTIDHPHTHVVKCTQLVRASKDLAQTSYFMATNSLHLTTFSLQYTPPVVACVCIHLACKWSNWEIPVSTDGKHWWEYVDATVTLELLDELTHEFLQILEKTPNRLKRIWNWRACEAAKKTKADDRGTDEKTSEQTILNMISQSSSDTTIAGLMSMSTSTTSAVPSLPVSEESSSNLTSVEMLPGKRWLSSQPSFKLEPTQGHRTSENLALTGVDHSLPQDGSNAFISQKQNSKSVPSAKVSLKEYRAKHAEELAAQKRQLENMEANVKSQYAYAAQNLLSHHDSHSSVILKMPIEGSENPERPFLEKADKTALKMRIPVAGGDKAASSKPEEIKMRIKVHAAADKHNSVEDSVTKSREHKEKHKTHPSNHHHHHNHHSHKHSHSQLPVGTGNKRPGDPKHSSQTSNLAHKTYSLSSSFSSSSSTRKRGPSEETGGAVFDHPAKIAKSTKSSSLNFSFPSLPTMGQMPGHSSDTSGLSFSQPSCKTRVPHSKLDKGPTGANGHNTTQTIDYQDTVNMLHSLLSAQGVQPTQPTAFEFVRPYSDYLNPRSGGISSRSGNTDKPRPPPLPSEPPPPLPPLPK

In the case of `Cc1nc2ccc(-c3cc(N)nc(N)c3)nc2n1[C@H](C)c1ccnc(F)c1` [Example 149, 4-{3-[(1R)-1-(2-fluoropyridin-4-yl)ethyl]-2-methyl-3H-imidazo[4,5-b]pyridin-5-yl}pyridine-2,6-diamine], the IC50 is 0.026 µM in test [1]; 0.004 µM against DYRK1B; above 10 µM on CDK9; 0.01 µM at DYRK1A [2]; 0.33 µM on DYRK1A [3].

Consider `Cc1nc2ccc(-c3cc(N)nc(N)c3)nc2n1CCc1ccsc1` [Example 29, 4-{2-methyl-3-[2-(thiophen-3-yl)ethyl]-3H-imidazo[4,5-b]pyridin-5-yl}pyridine-2,6-diamine], for which the IC50 in test [1] was found to be 0.011 µM; against DYRK1B it was 0.011 µM; against CDK9, 3.44 µM; against DYRK1A [2], 0.004 µM; on DYRK1A [3], 0.057 µM.

In the case of `Cc1nc2ccc(-c3cc(N)nc(N)c3)nc2n1CCC1CCCCC1` [Example 15, 4-[3-(2-cyclohexylethyl)-2-methyl-3H-imidazo[4,5-b]pyridin-5-yl]pyridine-2,6-diamine], the IC50 in test [1] is 0.011 µM; on DYRK1B, 0.008 µM; against CDK9, 0.47 µM; at DYRK1A [2], 0.004 µM; on DYRK1A [3], 0.11 µM.

As to `Cc1nc2ccc(-c3cc(N)nc(N)c3)nc2n1CCOc1ccccn1` [Example 217, 4-{2-methyl-3-[2-(pyridin-2-yloxy)ethyl]-3H-imidazo[4,5-b]pyridin-5-yl}pyridine-2,6-diamine], the IC50 is 0.01 µM in test [1]; 0.008 µM at DYRK1B; 0.881 µM on CDK9; 0.006 µM at DYRK1A [2]; 0.089 µM on DYRK1A [3].

Consider `COc1cccc(CCn2c(C)nc3ccc(-c4cc(N)nc(N)c4)nc32)c1` [Example 152, 4-{3-[2-(3-methoxyphenyl)ethyl]-2-methyl-3H-imidazo[4,5-b]pyridin-5-yl}pyridine-2,6-diamine], for which the IC50 in test [1] is 0.012 µM; against DYRK1B it was 0.007 µM; against CDK9 it was above 10 µM; at DYRK1A [2] it was 0.002 µM; on DYRK1A [3], 0.22 µM.

For `Cc1nc2ccc(-c3cc(N)nc(N)c3)nc2n1C1CCCC1` [Example 1, 4-(3-cyclopentyl-2-methyl-3H-imidazo[4,5-b]pyridin-5-yl)pyridine-2,6-diamine], the IC50 is 0.01 µM in test [1]; 0.004 µM against DYRK1B; 0.314 µM on CDK9; 0.013 µM against DYRK1A [2]; 0.08 µM on DYRK1A [3].

On to `Cc1nc2ccc(-c3cc(N)nc(N)c3)nc2[nH]1` [Example 61, 4-(2-methyl-3H-imidazo[4,5-b]pyridin-5-yl)pyridine-2,6-diamine], for which the IC50 in test [1] was 0.009 µM; against DYRK1B, 0.004 µM; against CDK9, above 10 µM; at DYRK1A [2], 0.002 µM; on DYRK1A [3] it was 0.155 µM.

Regarding `Cc1nc2ccc(-c3cc(N)nc(N)c3)nc2n1CC1CCOC1` (stereo not drawn) [Example 41, 4-[2-methyl-3-(tetrahydrofuran-3-ylmethyl)-3H-imidazo[4,5-b]pyridin-5-yl]pyridine-2,6-diamine], the IC50 in test [1] is 0.011 µM; against DYRK1B, 0.011 µM; at CDK9, 2.71 µM; on DYRK1A [2], 0.029 µM; at DYRK1A [3], 0.131 µM.

In the case of `Cc1nc2ccc(-c3cc(N)nc(N)c3)nc2n1CCc1ccc(Cl)c(Cl)c1` [Example 58, 4-{3-[2-(3,4-dichlorophenyl)ethyl]-2-methyl-3H-imidazo[4,5-b]pyridin-5-yl}pyridine-2,6-diamine], the IC50 in test [1] was 0.013 µM; against DYRK1B, 0.013 µM; against CDK9 it was above 10 µM; against DYRK1A [2], 0.003 µM; on DYRK1A [3], 0.08 µM.

As to `Cc1nc2ccc(-c3cc(N)nc(N)c3)nc2n1CCc1ccco1` [Example 19, 4-{3-[2-(furan-2-yl)ethyl]-2-methyl-3H-imidazo[4,5-b]pyridin-5-yl}pyridine-2,6-diamine], the IC50 in test [1] stood at 0.012 µM; on DYRK1B, 0.003 µM; at CDK9 it was 1.95 µM; against DYRK1A [2], 0.003 µM; on DYRK1A [3] it was 0.226 µM.

Take `Cc1nc2ccc(-c3cc(N)nc(N)c3)nc2n1C1CCSCC1` [Example 66, 4-[2-methyl-3-(tetrahydro-2H-thiopyran-4-yl)-3H-imidazo[4,5-b]pyridin-5-yl]pyridine-2,6-diamine]: the IC50 in test [1] was 0.009 µM; against DYRK1B, 0.012 µM; against CDK9, 0.365 µM; at DYRK1A [2] it was 0.005 µM; at DYRK1A [3], 0.072 µM.

For `CCc1nc2ccc(-c3cc(N)nc(N)c3)nc2n1C1CCCC1` [Example 156, 4-(3-cyclopentyl-2-ethyl-3H-imidazo[4,5-b]pyridin-5-yl)pyridine-2,6-diamine], the IC50 in test [1] stood at 0.017 µM; at DYRK1B, 0.016 µM; against CDK9 it was 0.554 µM; on DYRK1A [2], 0.013 µM; at DYRK1A [3], 0.151 µM.

For the compound `Cc1nc2ccc(-c3cc(N)nc(N)c3)nc2n1CC(C)C` [Example 31, 4-[2-methyl-3-(2-methylpropyl)-3H-imidazo[4,5-b]pyridin-5-yl]pyridine-2,6-diamine], the half-maximal inhibitory concentration (IC50) in test [1] turned out to be 0.01 µM; on DYRK1B, 0.002 µM; against CDK9, 1.78 µM; at DYRK1A [2], 0.009 µM; on DYRK1A [3], 0.07 µM.

For `Cc1nc2ccc(-c3cc(N)nc(N)c3)nc2n1CCc1ccc(Cl)cc1Cl` [Example 59, 4-{3-[2-(2,4-dichlorophenyl)ethyl]-2-methyl-3H-imidazo[4,5-b]pyridin-5-yl}pyridine-2,6-diamine], the IC50 was 0.021 µM in test [1], 0.003 µM against DYRK1B, above 10 µM at CDK9 and 0.002 µM at DYRK1A [2].

As to `Cc1nc2ccc(-c3cc(N)nc(N)c3)nc2n1CCc1cccs1` [Example 26, 4-{2-methyl-3-[2-(thiophen-2-yl)ethyl]-3H-imidazo[4,5-b]pyridin-5-yl}pyridine-2,6-diamine], the IC50 in test [1] came out at 0.007 µM; against DYRK1B it was 0.006 µM; at CDK9, 1.82 µM; against DYRK1A [2] it was 0.004 µM.

As to `Cc1nc2ccc(-c3cc(N)nc(N)c3)nc2n1Cc1cc(Cl)ccc1Cl` [Example 57, 4-[3-(2,5-dichlorobenzyl)-2-methyl-3H-imidazo[4,5-b]pyridin-5-yl]pyridine-2,6-diamine], the concentration for half-maximal inhibition (IC50) in test [1] was 0.085 µM; on DYRK1B it was 0.005 µM; against CDK9, above 10 µM; against DYRK1A [2], 0.026 µM.

As for `CCCC(C)n1c(C)nc2ccc(-c3cc(N)nc(N)c3)nc21` (stereo not drawn) [Example 64, 4-[2-methyl-3-(pentan-2-yl)-3H-imidazo[4,5-b]pyridin-5-yl]pyridine-2,6-diamine], the IC50 in test [1] is 0.026 µM; against DYRK1B it was 0.03 µM; on CDK9 it was above 10 µM; against DYRK1A [2], 0.009 µM.

What is called IC50 is the point on the concentration scale where inhibition reaches its midpoint.
